According to patent US20150352196A1, “Methods and Pharmaceutical Compositions for Prevention of Aging-Related Lesions” (INSERM (INSTITUT NATIONAL DE LA SANTÉ ET DE LA RECHERCHE …, priority 2012, published 2015):

Columns and labels:
Assay type in all cases: cell-based
PI3kinase/Akt pathway = assay: FOXO reporter in transfected HEK cells exposed to IGF-1; settings: HEK cells transfected with FOXO reporter
From the text: In addition, the inventors transfected HEK cells by a FOXO reporter measuring the activity of the Pl3kinase/Akt pathway downstream of IGF-1 receptor.

[1] = test system: mouse smooth muscle cells; assay: mitogenic effect of IGF-1 on mouse smooth muscle cells in vitro; settings: IGF-1 stimulated
calpain = calpain activity assays in cell lines expressing IGF-1 receptor after exposure to IGF-1; settings: including immortalized podocytes
From the text: Inventors first focused their work on somatotropic axis and particularly IGF-1 receptor role in calpain activation. […] Calpain activity assays developed in the laboratory have been performed in several cell lines expressing IGF-1 receptor (podocyte lines, splenocytes, mesangial cells) after exposure to IGF-1.

Substance | activity of the PI3kinase/Akt pathway downstream of IGF-1 receptor (FOXO reporter) (PI3kinase/Akt pathway) | mitogenic effect of IGF-1 [1] | calpain activity (calpain)
(2Z)-3-(4-iodophenyl)-2-mercapto-2-Propenoic acid, 3-(4-iodophenyl)-2-mercapto-(Z)-2-propenoic acid [PD-150606] | inhibited significantly | blunted partly but significantly | 
IGF-1: ligand of the IGF-1 receptor, somatotropic axis; used to stimulate cell lines |  |  | increase calpain activity in a dose- and time-dependent manner
